Results published in patent US8580769B2, “Treatment of obesity, metabolic syndrome, and diabetes with protein kinase C inhibitors” (The United States of America as represented by the …, priority 2011, dated 2013).

What was measured:
Het-MλKO mice = assay: clinical parameters in Het-MλKO mice (model of obesity/metabolic syndrome/T2DM); type: in vivo, mouse; conditions: for hepatic triglycerides / resting (basal) serum insulin levels: 7-day treatment s.c. (ATM 60 mg/kg; ICAPP 0.4 mg/kg); for serum glucose levels following acute insulin treatment: insulin 1 U/kg i.p.; for basal serum glucose levels (before insulin): s.c. once daily (ICAPP 0.4 mg/kg; ICAP 0.5 mg/kg)
Text: (§1) In Vivo Mouse Studies: Male wild type (WT) and heterozygous muscle-specific PKC-λ knockout (Het-MλKO) mice were generated as described (Farese et al., J. Clin. Invest. 117:2289-2301, 2007) and used at 6-12 months of age, when the O/MS/T2DM phenotype in MλKO mice is well-developed. Mice were housed in a temperature-controlled environment with alternating 12-hour light and dark cycles, and fed ad libitum with standard chow (Harlan Teklad 20/18 with 5% fat, (10% of calories from fat)). All experimental procedures in mice were approved by the Institutional Animal Care and Use Committees of the Roskamp Institute and the University of South Florida College of Medicine, and the James A. Haley Veterans Administration Medical Center Research and Development Committee, Tampa, Fla.
(§2) (ICAPP; prepared by Southern Research, Birmingham, Ala.) at 0.4 mg/kg body weight. On the morning of the eighth day of inhibitor treatment, mice were injected intraperitoneally (IP) with 0.9% saline or saline containing 1 U insulin/kg body weight 15 minutes before sacrifice, an optimal time for studies of insulin stimulation of aPKC and Akt in liver, muscle and adipose tissues (Standaert et al., J. Biol. Chem. 279:24929-24934, 2004; Sajan et al., J. Lipid Res. 50:1133-1145, 2009; Sajan et al., Diabetologia 52:1197-1207, 2009; Farese et al., J. Clin. Invest. 117:2289-2301, 2007). After killing, blood, liver, quadriceps muscle and abdominal adipose tissues were rapidly removed and homogenized in buffer with a POLYTRON® homogenizer.
Measurements of Serum Triglycerides, Cholesterol, Free Fatty Acids, Insulin and Glucose: Serum triglycerides, cholesterol, free fatty acids, insulin and glucose levels were measured as previously described (Sajan et al., J. Lipid Res. 50:1133-1145, 2009; Sajan et al., Diabetologia 52:1197-1207, 2009; Farese et al., J. Clin. Invest. 117:2289-2301, 2007).
Both aPKC inhibitors were tested in a murine model of O/MS/T2DM, a heterozygous muscle-specific PKC-λ knockout (Het-MλKO) mice, wherein defective insulin-stimulated glucose transport in muscle leads to glucose intolerance, systemic insulin resistance, hyperinsulinemia, increased hepatic aPKC activity, activation of hepatic SREBP-1c and IKKβ/NFκB, and thus to increased expression of hepatic enzymes engaged in lipogenesis and cytokine production, and ultimately to hepatosteatosis, abdominal obesity, hypertriglyceridemia, fatty acidemia, hypercholesterolemia, hyperinsulinemia, glucose intolerance, fasting hyperglycemia, and diminished glucose-lowering effects of acutely administered insulin (Sajan et al., J. Lipid Res. 50:1133-1145, 2009; Farese et al., J. Clin. Invest. 117:2289-2301, 2007).

aPKC = assay: tissue aPKC activity in Het-MλKO mice; type: in vivo, mouse; conditions: for aPKC activation in adipose tissue / aPKC activation in muscle: 7-day treatment s.c. (ATM 60 mg/kg; ICAPP 0.4 mg/kg)
Text: as §1, §2
Tissue and Immunoprecipitate Preparations: As previously described (Standaert et al., J. Biol. Chem. 279:24929-24934, 2004; Sajan et al., J. Lipid Res. 50:1133-1145, 2009; Sajan et al., Diabetologia 52:1197-1207, 2009; Farese et al., J. Clin. Invest. 117:2289-2301, 2007) hepatocytes and tissues from in vivo experiments were homogenized in ice-cold buffer containing 0.25 M sucrose, 20 mM Tris/HCl (pH 7.5), 2 mM EGTA, 2 mM EDTA, 1 mM phenylmethylsulfonyl fluoride (PMSF), 20 μg/ml leupeptin, 10 μg/ml aprotinin, 2 mM Na4P2O7, 2 mM Na3VO4, 2 mM NaF, and 1 μM microcystin. After centrifugation for 10 minutes at 700×g to remove unbroken cells, debris, nuclei, and floating fat, cell lysates were stored at −70° C. After addition of 1% TRITON® X-100, 0.6% Nonidet and 150 mM NaCl, lysates were cleared of insoluble materials by low-speed centrifugation and subsequently immunoprecipitated with antibodies that target: (a) aPKCs (rabbit polyclonal antiserum from Santa Cruz Biotechnologies (Santa Cruz, Calif.) that recognizes C-termini of both PKC-λ and PKC-ζ); and (b) Akt2 (Upstate Cell Signaling/Millipore, Billerica, Mass.). Immunoprecipitates were collected on Sepharose-AG beads (Santa Cruz Biotechnologies).
aPKCι Assays: aPKC enzyme activity was measured as previously described (Standaert et al., J. Biol. Chem. 279:24929-24934, 2004; Sajan et al., J. Lipid Res. 50:1133-1145, 2009; Sajan et al., Diabetologia 52:1197-1207, 2009; Farese et al., J. Clin. Invest. 117:2289-2301, 2007). […] After incubation, ^32P-labeled substrate was trapped on P-81 filter paper and counted. This assay reflects the specific activity of a constant amount of aPKC (even in Het-MλKO mice) that is immunoprecipitated by supplier-prescribed amounts of antiserum (Farese et al., J. Clin. Invest. 117:2289-2301, 2007; Beeson et al., Diabetes 52:1926-1934, 2003).

[1] = Het-MλKO mice, s.c. once daily (ATM 60 mg/kg; ICAPP 0.4 mg/kg; ICAP 0.5 mg/kg)
[2] = ICAP-treated Mλ-Het KO mice (n = 12), 0.5 mg/kg body weight/day x 8 days s.c., mean ± SEM
[3] = Het-MλKO mice, s.c. once daily (ICAPP 0.4 mg/kg 7 days; ICAP 0.5 mg/kg 8 days)

Compound	hepatic triglycerides (Het-MλKO mice; Het-MλKO mice)	resting (basal) serum insulin levels (Het-MλKO mice; Het-MλKO mice)	abdominal fat content (Het-MλKO mice; [1])	serum cholesterol (Het-MλKO mice; [1])	serum triglycerides (Het-MλKO mice; [1])	serum glucose levels following acute insulin treatment (Het-MλKO mice; [1])	aPKC activation in adipose tissue (aPKC; Het-MλKO mice)	aPKC activation in muscle (aPKC; Het-MλKO mice)	basal serum glucose levels (before insulin) (Het-MλKO mice; Het-MλKO mice)	Abdominal fat (Het-MλKO mice; [2]) [mg/g body weight]	Ad lib-fed serum glucose (Het-MλKO mice; [2]) [mg/dL]	serum cholesterol (Het-MλKO mice; [2]) [mg/dL]	serum triglycerides (Het-MλKO mice; [2]) [mg/dL]	hepatic aPKC activity (aPKC; [3])	hepatic aPKC activity (aPKC; [2]) [cpm/immunoppt]	serum free fatty acids (Het-MλKO mice; Het-MλKO mice, ICAPP 0.4 mg/kg/day s.c., 7 days)	food intake (Het-MλKO mice; Het-MλKO mice, ICAPP-treated)
O=C([O-])CC([S][Au])C(=O)[O-] (stereo not shown) [ATM, aurothiomalate, reference compound]	decreased, virtually to normal	decreased, virtually to normal	decreased, virtually to normal	decreased, virtually to normal	decreased, virtually to normal	decreased, virtually to normal	increased significantly	increased significantly									
NC(=O)c1ncn([C@@H]2C[C@H](CO)[C@@H](O)[C@H]2O)c1N [ICAP, 1H-imidazole-4-carboxamide 5-amino-1-[2,3-dihydroxy-4-[hydroxymethyl]cyclopentyl]-[1R-(1α,2β,3β,4α)]]			diminished	diminished	diminished	diminished			diminished	26 ± 3.2	139 ± 20	108 ± 10	104 ± 7	inhibited	1374 ± 128		
NC(=O)c1ncn([C@@H]2C[C@H](COP(=O)(O)O)[C@@H](O)[C@H]2O)c1N [ICAPP, 1H-imidazole-4-carboxamide, 5-amino-1-[2,3-dihydroxy-4-[(phosphonooxy)methyl]cyclopentyl]-[1R-(1α,2β,3β,4α)]]	marked improvements	marked improvements	marked improvements	marked improvements	marked improvements	marked improvements	increased significantly or trended upward	increased significantly or trended upward	marked improvements					diminished		marked improvements	not altered
